Read-outs that look alike come from different tables or passages of the source.
Legend:
Format in all cases: cell-based, human
HTT [1] = experiment: Splicing RT-qPCR assay, HTT mRNA canonical junction (CJ) and alternative junction (AJ); conditions: for AC50: increase in AJ mRNA
How it was run: (§1)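 Splice switching is measured in A673 or K562 cells after 24 h compound exposure (maximum 10 uM, 3-fold steps). Canonical and alternative junction mRNA levels are quantified by RT-qPCR relative to housekeeper and DMSO.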

MYB [2] = experiment: Splicing RT-qPCR assay, MYB mRNA canonical junction (CJ) and alternative junction (AJ); conditions: for AC50: increase in AJ mRNA
How it was run: as §1

SMN2 = experiment: Splicing RT-qPCR panel, SMN2 canonical junction (CJ) mRNA; conditions: read-out: SMN2 IC50 (decrease in CJ mRNA levels)
How it was run: as §1

Target C [3] = experiment: Splicing RT-qPCR panel, Target C canonical junction (CJ) mRNA; conditions: read-out: Target C IC50 (decrease in CJ mRNA levels)
How it was run: as §1

MYB [4] = experiment: HiBiT protein abundance assay, MYB; conditions: modified K562 cells
How it was run: (§2)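 HiBiT-tagged endogenous targets in K562 cells treated 24 h at 37° C. with 10-point 3-fold dilutions (top 10 μM, DMSO ≤0.25%). Luminescence read after lytic LgBiT detection; response normalised to unmodified-cell and DMSO controls, IC50 interpolated at 50% from four-parameter logistic fit.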

HTT [5] = experiment: HiBiT protein abundance assay, HTT; conditions: modified K562 cells
How it was run: as §2

Target C [6] = experiment: HiBiT protein abundance assay, Target C; conditions: modified K562 cells
How it was run: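 HiBiT knock-in K562-derived cells seeded at 10000/well and treated with 10-point 3-fold dilutions (top final 10 μM, ≤0.25% DMSO) for 24 h at 37 °C. Lytic HiBiT luminescence normalised to unmodified-cell and DMSO controls; IC50 from 4-parameter fit at 50% abundance.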

[7] = Homo sapiens, 24 h, decrease in CJ mRNA, A673 or K562 cells, 24 hours treatment, RT-qPCR, read-out: HTT CJ IC50
[8] = Homo sapiens, 24 h, A673 or K562 cells, 24 hours treatment, RT-qPCR
[9] = Homo sapiens, RT-qPCR panel, canonical junction mRNA, compound concentration having 50% response in CJ decrease, read-out: HTT IC50 (decrease in CJ mRNA levels)
[10] = Homo sapiens, 24 h, decrease in CJ mRNA, A673 or K562 cells, 24 hours treatment, RT-qPCR, read-out: MYB CJ IC50
[11] = Homo sapiens, RT-qPCR panel, canonical junction mRNA, compound concentration having 50% response in CJ decrease, read-out: MYB IC50 (decrease in CJ mRNA levels)
[12] = Homo sapiens, RT-qPCR panel, canonical junction mRNA, compound concentration having 50% response in CJ decrease
[13] = Homo sapiens, K562, 24 h, Table 13A
[14] = RT-qPCR panel, canonical junction mRNA, compound concentration having 50% response in CJ decrease
[15] = Homo sapiens, gene panel, CJ qPCR, protocol of Example 142, read-out: HTT IC50 (decrease in CJ mRNA levels)
[16] = Homo sapiens, gene panel, CJ qPCR, protocol of Example 142, read-out: MYB IC50 (decrease in CJ mRNA levels)
[17] = Homo sapiens, gene panel, CJ qPCR, protocol of Example 142
[18] = Homo sapiens, K562, 24 h, Table 13B

Row | Structure (SMILES) | IC50 (HTT [1]; [7]) [nM] | AC50 (HTT [1]; [8]) [nM] | IC50 (HTT [1]; [9]) [nM] | IC50 (MYB [2]; [10]) [nM] | AC50 (MYB [2]; [8]) [µM] | IC50 (MYB [2]; [11]) [nM] | IC50 (SMN2; [12]) [nM] | IC50 (Target C [3]; [12]) [µM] | IC50 (MYB [4]; [13]) [nM] | IC50 (HTT [5]; [13]) [nM] | IC50 (Target C [6]; [13]) [nM] | other results
1 | c1nc2c(-c3cn[nH]c3)ccc(-c3cnc(N4CCNC(C5CC5)C4)nn3)c2s1 (stereo not drawn) [Compound 414] | 100 to 1000 | 100 to 1000 | 100 to 1000 | 1000 to 10000 | > 10 | 1000 to 10000 | 1000 to 10000 | 1 to 10 | 1000 to 10000 | 100 to 1000 | 100 to 1000 | –
2 | c1cnn(-c2ccc(-c3cnc(N4CCC(NC5CC5)C4)nn3)c3cn[nH]c23)c1 (stereo not drawn) [Compound 548] | – | – | – | – | – | – | – | – | – | – | – | IC50 (HTT [1]; RT-qPCR panel, canonical junction mRNA, compound concentration having 50% response in CJ decrease, read-out: HTT IC50 (decrease in CJ mRNA levels)): 1000 to 10000 nM; IC50 (MYB [2]; RT-qPCR panel, canonical junction mRNA, compound concentration having 50% response in CJ decrease, read-out: MYB IC50 (decrease in CJ mRNA levels)): > 10000 nM; IC50 (SMN2; [14]): 1000 to 10000 nM; IC50 (Target C [3]; [14]): > 10 µM; IC50 (MYB [4]; Table 13A, 24 hours): > 10000 nM; IC50 (HTT [5]; Table 13A, 24 hours): 1000 to 10000 nM; IC50 (Target C [6]; Table 13A, 24 hours): 1000 to 10000 nM
3 | CN(c1ccc(-c2ccc(-c3cnn(C)c(=O)c3)c3ncsc23)nn1)C1CC(C)(C)NC(C)(C)C1 [Compound 331, 2-methyl-5-(7-{6-[methyl(2,2,6,6-tetramethylpiperidin-4-yl)amino]pyridazin-3-yl}-1,3-benzothiazol-4-yl) pyridazin-3-one] | 1000 to 10000 | 1000 to 10000 | 1000 to 10000 | 1000 to 10000 | 1 to 10 | 1000 to 10000 | 100 to 1000 | > 10 | 1000 to 10000 | 100 to 1000 | > 10000 | –
4 | Cc1ncc(-c2ccc(-c3ccc(N(C)C4CC(C)(C)NC(C)(C)C4)nn3)c3scnc23)o1 [Compound 342] | 100 to 1000 | 100 to 1000 | 100 to 1000 | 1000 to 10000 | 1 to 10 | 1000 to 10000 | < 100 | 1 to 10 | 100 to 1000 | 100 to 1000 | 100 to 1000 | –
5 | c1n[nH]cc1-c1ccc(-c2ccc(S[C@@H]3C[C@H]4CC[C@@H](C3)N4)nn2)c2[nH]ncc12 [Compound 221] | > 10000 | > 10000 | > 10000 | > 10000 | > 10 | > 10000 | > 10000 | > 10 | 1000 to 10000 | 1000 to 10000 | 1000 to 10000 | –
6 | CN(c1ccc(-c2ccc(-c3cn[nH]c3)c3[nH]ncc23)nn1)[C@@H]1C[C@H]2CC[C@@H](C1)N2 [Compound 329] | > 10000 | > 10000 | > 10000 | > 10000 | > 10 | > 10000 | 1000 to 10000 | > 10 | > 10000 | > 10000 | > 10000 | –
7 | CN(c1ncc(-c2ccc(-c3cn[nH]c3)c3ncsc23)nn1)[C@H]1C[C@]2(C)CC[C@](C)(C1)N2 [Compound 424, (1S,5R)—N,1,5-trimethyl-N-[6-[4-(1H-pyrazol-4-yl)-1,3-benzothiazol-7-yl]-1,2,4-triazin-3-yl]-8-azabicyclo [3.2.1] octan-3-amine] | – | < 100 | < 100 | 100 to 1000 | 0.1 to 1 | 100 to 1000 | 100 to 1000 | < 0.1 | 100 to 1000 | < 100 | < 100 | –
8 | c1nc2c(-c3cn[nH]c3)ccc(-c3ccc(NC4CNC4)nn3)c2s1 [Compound 196] | > 10000 | > 10000 | > 10000 | > 10000 | > 10 | > 10000 | > 10000 | > 10 | > 10000 | > 10000 | > 10000 | –
9 | COc1cc(-c2ccc(-c3ccc(N(C)C4CC(C)(C)NC(C)(C)C4)nn3)c3scnc23)ccn1 [Compound 280] | 100 to 1000 | 100 to 1000 | 100 to 1000 | 1000 to 10000 | 1 to 10 | 1000 to 10000 | 100 to 1000 | 1 to 10 | 100 to 1000 | < 100 | 100 to 1000 | –
10 | CCN(c1ccc(-c2ccc(-c3cn[nH]c3)c3cn[nH]c23)nn1)C1CC(C)(C)NC(C)(C)C1 [Compound 293] | 1000 to 10000 | 1000 to 10000 | 1000 to 10000 | 1000 to 10000 | > 10 | 1000 to 10000 | 100 to 1000 | > 10 | 1000 to 10000 | 1000 to 10000 | 1000 to 10000 | –
11 | c1cnn(-c2ccc(-c3ccc(O[C@@H]4C[C@H]5CC[C@@H](C4)N5)nn3)c3scnc23)c1 [Compound 334] | 100 to 1000 | 1000 to 10000 | 100 to 1000 | > 10000 | 1 to 10 | > 10000 | 100 to 1000 | > 10 | 100 to 1000 | 100 to 1000 | 1000 to 10000 | –
12 | CC(C)(C)[C@@H]1CN(c2ncc(-c3ccc(-n4cccn4)c4[nH]ncc34)nn2)CCN1 [Compound 582] | – | – | 100 to 1000 | – | – | 1000 to 10000 | < 100 | 1 to 10 | 1000 to 10000 | 100 to 1000 | 1000 to 10000 | –
13 | COc1cc(-c2ccc(-c3ccc(N(C)[C@@H]4C[C@H]5CC[C@@H](C4)N5)nn3)c3[nH]ncc23)ccn1 [Compound 364, (exo)-N-{6-[4-(2-methoxypyridin-4-yl)-1H-indazol-7-yl]pyridazin-3-yl}-N-methyl-8-azabicyclo[3.2.1]octan-3-amine] | – | < 100 | < 100 | 100 to 1000 | < 0.1 | 100 to 1000 | < 100 | 0.1 to 1 | < 100 | < 100 | < 100 | –
14 | CC1(C)CC(Oc2ccc(-c3ccc(-n4cccn4)c4[nH]ncc34)nn2)CC(C)(C)N1 [Compound 554] | – | – | 100 to 1000 | – | – | 100 to 1000 | 100 to 1000 | 1 to 10 | 100 to 1000 | 100 to 1000 | 100 to 1000 | –
15 | COc1nc(-c2ccc(N(C)C3CC(C)(C)NC(C)(C)C3)nn2)ccc1-c1cnn(C)n1 [Compound 927] | – | – | – | – | – | – | – | – | – | – | – | IC50 (HTT [1]; [15]): 100 to 1000 nM; IC50 (MYB [2]; [16]): 1000 to 10000 nM; IC50 (SMN2; [17]): 100 to 1000 nM; IC50 (Target C [3]; [17]): 1 to 10 µM; IC50 (MYB [4]; [18]): 100 to 1000 nM; IC50 (HTT [5]; [18]): 100 to 1000 nM; IC50 (Target C [6]; [18]): 100 to 1000 nM
16 | COc1nc(-c2ccc(N(C)C3CC(C)(C)NC(C)(C)C3)nc2)ccc1-c1cnn(C)c1 [Compound 994] | – | – | – | – | – | – | – | – | – | – | – | IC50 (HTT [1]; [15]): 100 to 1000 nM; IC50 (MYB [2]; [16]): 100 to 1000 nM; IC50 (SMN2; [17]): 1000 to 10000 nM; IC50 (Target C [3]; [17]): 0.1 to 1 µM; IC50 (MYB [4]; [18]): 1000 to 10000 nM; IC50 (HTT [5]; [18]): 100 to 1000 nM; IC50 (Target C [6]; [18]): 100 to 1000 nM
17 | c1nc2c(-c3cn[nH]c3)ccc(-c3ccc(O[C@@H]4C[C@H]5COC[C@@H](C4)N5)nn3)c2s1 [Compound 357] | – | < 100 | < 100 | 100 to 1000 | 0.1 to 1 | 100 to 1000 | < 100 | 0.1 to 1 | 100 to 1000 | < 100 | 100 to 1000 | –
18 | c1nc2c(-c3cn[nH]c3)ccc(-c3ccc(N4CCCC5(CCNC5)C4)nn3)c2s1 (stereo not drawn) [Compound 193] | > 10000 | > 10000 | > 10000 | > 10000 | > 10 | > 10000 | > 10000 | > 10 | 1000 to 10000 | > 10000 | > 10000 | –
19 | [2H]C([2H])([2H])N(c1ccc(-c2ccc(-c3cn[nH]c3)c3cn[nH]c23)nn1)C1CCNCC1 [Compound 267] | > 10000 | > 10000 | > 10000 | > 10000 | > 10 | > 10000 | 1000 to 10000 | > 10 | 1000 to 10000 | 1000 to 10000 | 1000 to 10000 | –

Source: patent US20240368163A1, “COMPOUNDS AND METHODS FOR MODULATING SPLICING” (REMIX THERAPEUTICS INC., priority 2021, published 2024)
